The record followed here is patent publication US8481536B2, “Benzotriazine inhibitors of kinases” (TargeGen, Inc., priority 2004, dated 2013).

As a reminder, the IC50 is the concentration that inhibits the measured activity by half.

Holding throughout (type): biochemical
The target of test [1] is Pdgfrβ (Homo sapiens (Human), UniProt P09619). Briefly: Pdgfrβ kinase inhibition in vitro (luciferase-based residual ATP). The following applies: 500 nM ATP, PTK2 peptide, 60 minutes at 37 C; read-out: PDGFR IC50. The procedure: (§1) The ability of compounds of the present invention to inhibit the activity of three groups of kinases was tested. Kinases tested included the src family (primarily src and yes), some angiogenic growth factor receptors (Fgfr1, Vegfr, and Pdgfrβ) and the ephrin, EphB4. All kinase reactions were conducted in 96-well plates with a final reaction volume of 50 ul.
Pdgfrβ, sequence (P09619 33-1106): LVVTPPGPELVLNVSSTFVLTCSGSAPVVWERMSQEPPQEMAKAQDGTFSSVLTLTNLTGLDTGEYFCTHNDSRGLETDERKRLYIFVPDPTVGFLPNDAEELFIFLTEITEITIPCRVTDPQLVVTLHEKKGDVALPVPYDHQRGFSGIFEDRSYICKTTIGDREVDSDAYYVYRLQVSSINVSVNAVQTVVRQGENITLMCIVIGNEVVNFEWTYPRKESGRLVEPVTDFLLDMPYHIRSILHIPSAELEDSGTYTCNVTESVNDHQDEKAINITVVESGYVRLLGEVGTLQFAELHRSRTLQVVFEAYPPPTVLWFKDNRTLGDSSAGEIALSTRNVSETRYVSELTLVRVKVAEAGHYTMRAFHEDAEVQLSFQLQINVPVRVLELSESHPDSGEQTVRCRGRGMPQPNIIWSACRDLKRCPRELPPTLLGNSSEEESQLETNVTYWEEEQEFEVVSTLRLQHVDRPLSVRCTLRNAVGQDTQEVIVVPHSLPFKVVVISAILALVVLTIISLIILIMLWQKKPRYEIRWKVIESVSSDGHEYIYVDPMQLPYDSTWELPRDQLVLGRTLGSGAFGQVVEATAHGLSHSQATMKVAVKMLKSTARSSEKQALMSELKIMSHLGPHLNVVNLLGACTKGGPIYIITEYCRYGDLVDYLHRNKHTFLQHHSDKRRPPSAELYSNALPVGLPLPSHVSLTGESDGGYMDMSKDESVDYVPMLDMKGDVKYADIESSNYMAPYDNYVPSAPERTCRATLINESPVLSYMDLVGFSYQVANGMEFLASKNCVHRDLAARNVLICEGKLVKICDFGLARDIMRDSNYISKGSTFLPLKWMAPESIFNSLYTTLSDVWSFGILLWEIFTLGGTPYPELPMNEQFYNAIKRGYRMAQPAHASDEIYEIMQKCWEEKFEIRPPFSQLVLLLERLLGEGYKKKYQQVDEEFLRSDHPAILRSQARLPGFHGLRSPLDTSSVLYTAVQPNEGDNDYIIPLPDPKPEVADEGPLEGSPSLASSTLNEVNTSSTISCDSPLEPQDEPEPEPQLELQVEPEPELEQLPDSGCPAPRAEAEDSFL
Pdgfrβ (0.16 ug/well, Panvera/Invitrogen) 500 nM ATP and the PTK2 peptide (700 uM) were combined with compound and reaction buffer as noted above for src. The reaction was incubated for 60 minutes at 37 C, and the residual ATP concentration was determined using the luciferase-based technique also noted above.
(§2) The test results for inhibition of Src kinase are presented in Table 1, and the test results for inhibition of some other kinases (i.e., Yes, EphB4, and Pdgfrβ) are presented in Table 2.

Test [2] concerns the target Recombinant human c-Src (Homo sapiens (Human), UniProt P12931). Nature of the test: Src kinase inhibition in vitro (luciferase-based residual ATP, KinaseGlo). The following applies: ATP 3 μM, PTK2 substrate, 90 minutes at room temperature. The procedure:
as §1
(§3) After reacting for about 90 minutes at room temperature, residual ATP was determined using a luciferase-based assay (KinaseGlo, Promega Corp.) as a measure of kinase activity. Data from four wells were then averaged and used to determine IC50 values for the test compounds (Prism software package, GraphPad Software, San Diego Calif.).
as §2
For orientation: Kinase-Glo measures the ATP left after a reaction by luminescence.

In test [3] the target is EphB4 (Homo sapiens (Human), UniProt P54760). Briefly: EphB4 kinase inhibition in vitro (luciferase-based residual ATP). The conditions noted are these: 6 uM ATP, poly(glu4tyr), 60 minutes at 37 C. The method, then:
as §1, §2

Test [4] has as its target Recombinant human Yes (Homo sapiens (Human), UniProt P07947). Briefly: Yes kinase inhibition in vitro (luciferase-based residual ATP, KinaseGlo). The following applies: ATP 3 μM, PTK2 substrate, 90 minutes at room temperature. The procedure:
as §1, §3, §2

Recombinant human c-Src, sequence (P12931 whole entry, looked up): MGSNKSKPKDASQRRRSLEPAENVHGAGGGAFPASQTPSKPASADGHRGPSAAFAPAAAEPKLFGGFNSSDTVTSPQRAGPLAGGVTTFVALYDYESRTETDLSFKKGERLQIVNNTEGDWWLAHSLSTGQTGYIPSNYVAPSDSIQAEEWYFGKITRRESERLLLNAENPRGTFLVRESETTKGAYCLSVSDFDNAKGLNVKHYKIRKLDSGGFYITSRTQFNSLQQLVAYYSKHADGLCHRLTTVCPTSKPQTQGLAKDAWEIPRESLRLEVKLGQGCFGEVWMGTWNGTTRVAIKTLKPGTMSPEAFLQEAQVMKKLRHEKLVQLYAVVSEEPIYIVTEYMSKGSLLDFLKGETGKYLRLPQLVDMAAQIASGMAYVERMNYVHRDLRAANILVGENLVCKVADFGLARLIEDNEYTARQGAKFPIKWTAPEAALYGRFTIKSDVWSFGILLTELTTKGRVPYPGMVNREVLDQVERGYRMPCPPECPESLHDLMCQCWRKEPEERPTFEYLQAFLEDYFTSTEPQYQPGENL
EphB4, sequence (P54760 16-987): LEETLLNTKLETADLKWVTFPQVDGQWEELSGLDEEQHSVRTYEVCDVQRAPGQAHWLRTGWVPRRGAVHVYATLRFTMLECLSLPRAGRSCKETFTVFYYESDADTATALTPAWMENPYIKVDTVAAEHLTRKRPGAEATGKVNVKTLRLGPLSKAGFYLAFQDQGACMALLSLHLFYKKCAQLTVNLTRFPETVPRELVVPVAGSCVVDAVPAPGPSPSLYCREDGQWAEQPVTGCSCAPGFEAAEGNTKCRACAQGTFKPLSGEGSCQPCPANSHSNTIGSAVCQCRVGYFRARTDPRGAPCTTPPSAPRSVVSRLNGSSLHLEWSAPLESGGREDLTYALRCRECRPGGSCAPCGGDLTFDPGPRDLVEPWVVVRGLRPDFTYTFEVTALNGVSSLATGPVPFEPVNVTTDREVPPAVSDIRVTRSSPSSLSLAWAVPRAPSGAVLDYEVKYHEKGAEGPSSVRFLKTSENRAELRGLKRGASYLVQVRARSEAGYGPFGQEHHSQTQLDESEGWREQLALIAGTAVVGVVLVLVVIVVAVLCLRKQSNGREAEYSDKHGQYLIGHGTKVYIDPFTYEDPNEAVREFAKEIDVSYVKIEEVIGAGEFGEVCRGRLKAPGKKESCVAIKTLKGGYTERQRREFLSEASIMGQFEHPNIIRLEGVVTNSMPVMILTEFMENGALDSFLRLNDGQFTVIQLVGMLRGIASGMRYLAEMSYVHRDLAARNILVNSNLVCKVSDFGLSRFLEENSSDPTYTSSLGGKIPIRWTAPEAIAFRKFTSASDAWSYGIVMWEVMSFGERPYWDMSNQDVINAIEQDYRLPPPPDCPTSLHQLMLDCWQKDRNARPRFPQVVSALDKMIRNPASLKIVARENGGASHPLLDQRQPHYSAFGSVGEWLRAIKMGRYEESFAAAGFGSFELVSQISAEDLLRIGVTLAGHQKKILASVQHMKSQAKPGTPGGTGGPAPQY
Recombinant human Yes, sequence (P07947 whole entry): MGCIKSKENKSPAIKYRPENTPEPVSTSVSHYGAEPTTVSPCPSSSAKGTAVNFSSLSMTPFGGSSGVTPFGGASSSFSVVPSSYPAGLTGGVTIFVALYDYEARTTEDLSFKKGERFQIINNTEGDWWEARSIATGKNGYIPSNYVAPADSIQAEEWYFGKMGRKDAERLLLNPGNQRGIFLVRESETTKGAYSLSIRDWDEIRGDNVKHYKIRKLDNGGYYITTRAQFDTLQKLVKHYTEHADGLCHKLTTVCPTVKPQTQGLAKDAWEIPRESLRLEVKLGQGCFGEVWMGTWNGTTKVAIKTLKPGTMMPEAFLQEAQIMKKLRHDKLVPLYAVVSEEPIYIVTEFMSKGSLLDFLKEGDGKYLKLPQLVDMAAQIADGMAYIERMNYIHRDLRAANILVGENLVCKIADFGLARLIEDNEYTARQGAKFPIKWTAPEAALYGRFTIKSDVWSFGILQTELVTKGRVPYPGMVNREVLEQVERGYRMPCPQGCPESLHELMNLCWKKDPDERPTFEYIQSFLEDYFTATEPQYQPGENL

With `Cc1ccccc1-c1cc2nnc(Nc3ccc(S(=O)(=O)NCCN4CCCC4)cc3)nc2cc1C` [4-(6-methyl-7-o-tolyl-benzo[1,2,4]triazin-3-ylamino)-N-(2-pyrrolidin-1-yl-ethyl)-benzenesulfonamide], the values for the IC50 in test [1] and in test [2] were 24.3 nM and 10.2 nM, respectively.

For the molecule `Cc1cc2nc(Nc3ccc(S(=O)(=O)NCCN4CCCC4)cc3)nnc2cc1-c1c(C)cccc1C` [4-[7-(2,6-dimethyl-phenyl)-6-methyl-benzo[1,2,4]triazin-3-ylamino]-N-(2-pyrrolidin-1-yl-ethyl)-benzenesulfonamide], the IC50 in test [1] amounted to 48.1 nM; in test [2], 10.5 nM.

Take `Cc1cc(F)ccc1-c1cc2nnc(Nc3ccc(S(=O)(=O)NCCN4CCCC4)cc3)nc2cc1C` [4-[7-(4-fluoro-2-methyl-phenyl)-6-methyl-benzo[1,2,4]triazin-3-ylamino]-N-(2-pyrrolidin-1-yl-ethyl)-benzenesulfonamide]: the IC50 is 73.7 nM in test [1] and 20.4 nM in test [2].

Regarding `Cc1cc(-c2cc(O)ccc2Cl)cc2nnc(Nc3ccc(S(=O)(=O)C4CCNCC4)cc3)nc12` [4-chloro-3-{5-methyl-3-[4-(piperidine-4-sulfonyl)-phenylamino]-benzo[1,2,4]triazin-7-yl}-phenol], the IC50 in test [1] was 2.8 nM.

`Cc1cc2nc(Nc3ccc(OCCN4CCCC4)cc3)nnc2cc1-c1cc(O)ccc1Cl` [4-chloro-3-{6-methyl-3-[4-(2-pyrrolidin-1-yl-ethoxy)phenylamino]-benzo[1,2,4]triazin-7-yl}-phenol]: the IC50 in test [1] came out at 5.7 nM.

For `Cc1cccc(C)c1-c1cc(C)c2nc(Nc3ccc(C(=O)NCCN4CCCC4)o3)nnc2c1` [5-[7-(2,6-dimethyl-phenyl)-5-methyl-benzo[1,2,4]triazin-3-ylamino]-furan-2-carboxylic acid (2-pyrrolidin-1-yl-ethyl)-amide], the IC50 in test [1] was 117 nM.

In the case of `Cc1cc(-c2cc(O)ccc2Cl)cc2nnc(Nc3ccc(C(=O)NCCN4CCCC4)o3)nc12` [5-[7-(2-chloro-5-hydroxy-phenyl)-5-methyl-benzo[1,2,4]triazin-3-ylamino]-furan-2-carboxylic acid (2-pyrrolidin-1-yl-ethyl)-amide], in test [1], the IC50 is 14.4 nM.

Take `CC(=O)Nc1cc(-c2c(C)cccc2C)cc2nnc(Nc3ccc(OCCN4CCCC4)cc3)nc12` [N-{7-(2,6-dimethyl-phenyl)-3-[4-(2-pyrrolidin-1-yl-ethoxy)-phenylamino]-benzo[1,2,4]triazin-5-yl}-acetamide]: the IC50 is 11.5 nM in test [1] and 6.8 nM in test [2].

As for `Cc1cccc(C)c1-c1cc(NS(C)(=O)=O)c2nc(Nc3ccc(OCCN4CCCC4)cc3)nnc2c1` [N-{7-(2,6-dimethyl-phenyl)-3-[4-(2-pyrrolidin-1-yl-ethoxy)-phenylamino]-benzo[1,2,4]triazin-5-yl}-methanesulfonamide], the figures for the IC50 in test [1] and in test [2] were 15.7 nM and 20.4 nM, respectively.

For `CC(=O)Nc1cc(-c2c(C)cccc2C)cc2nnc(Nc3ccc(S(=O)(=O)NCCN4CCCC4)cc3)nc12` [N-{7-(2,6-dimethyl-phenyl)-3-[4-(2-pyrrolidin-1-yl-ethylsulfamoyl)-phenylamino]-benzo[1,2,4]triazin-5-yl}-acetamide], in test [1], the IC50 came out at 1850 nM.

For `Cc1cc(-c2c(Cl)cccc2Cl)cc2nnc(Nc3ccc(OCCN4CCCC4)cc3)nc12` [[7-(2,6-dichloro-phenyl)-5-methyl-benzo[1,2,4]triazin-3-yl]-[4-(2-pyrrolidin-1-yl-ethoxy)-phenyl]-amine], the IC50 in test [1] was determined as 15 nM.

For the molecule `Cc1cccc(C)c1-c1cc(C)c2nc(Nc3cccc(S(=O)(=O)N4CCN(C)CC4)c3)nnc2c1` [[7-(2,6-dimethyl-phenyl)-5-methyl-benzo[1,2,4]triazin-3-yl]-[3-(4-methyl-piperazine-1-sulfonyl)-phenyl]-amine], the IC50 in test [1] amounted to 81.3 nM; in test [2], 322 nM.

Turning to `Cc1cccc(C)c1-c1cc(C)c2nc(Nc3ccccc3)nnc2c1` [[7-(2,6-dimethyl-phenyl)-5-methyl-benzo[1,2,4]triazin-3-yl]-phenyl-amine], the IC50 in test [1] was 628 nM.

Regarding `Cc1cccc(C)c1-c1cc(C)c2nc(Nc3cccc(OCCN4CCN(C)CC4)c3)nnc2c1` [[7-(2,6-dimethyl-phenyl)-5-methyl-benzo[1,2,4]triazin-3-yl]-{3-[2-(4-methyl-piperazin-1-yl)-ethoxy]-phenyl}-amine], the IC50 in test [1] is 69.1 nM; in test [2], 39.5 nM.

As to `Cc1cccc(C)c1-c1cc(C)c2nc(Nc3cccc(OCCCN4CCN(C)CC4)c3)nnc2c1` [[7-(2,6-dimethyl-phenyl)-5-methyl-benzo[1,2,4]triazin-3-yl]-{3-[3-(4-methyl-piperazin-1-yl)-propoxy]-phenyl}-amine], the IC50 in test [1] was determined as 76.3 nM.

Take `Cc1cccc(C)c1-c1cc(C)c2nc(Nc3ccc(OCCCN4CCN(C)CC4)cc3)nnc2c1` [[7-(2,6-dimethyl-phenyl)-5-methyl-benzo[1,2,4]triazin-3-yl]-{4-[3-(4-methyl-piperazin-1-yl)-propoxy]-phenyl}-amine]: the IC50 in test [1] came to 50.3 nM.

In the case of `Cc1cc(-c2cc(O)ccc2Cl)cc2nnc(Nc3ccc(OCCN4CCCC4)cc3)nc12` [[7-(2-chloro-5-hydroxy-phenyl)-5-methyl-benzo[1,2,4]triazin-3-yl]-[4-(2-pyrrolidine-1-yl-ethoxy)-phenyl]-amine], the IC50 stood at 15.9 nM in test [3], 1.1 nM in test [1], 0.5 nM in test [4] and 1.6 nM in test [2].

For the molecule `Cc1ccc(F)cc1-c1cc2nnc(Nc3ccc(OCCN4CCCC4)cc3)nc2cc1C` [[7-(5-fluoro-2-methyl-phenyl)-6-methyl-benzo[1,2,4]triazin-3-yl]-[4-(2-pyrrolidin-1-yl-ethoxy)-phenyl]-amine], the IC50 in test [1] worked out at 26.1 nM.

As to `Cc1cc(-c2cc(O)ccc2Cl)cc2nnc(Nc3ccc(C(=O)N4CCNCC4)cc3)nc12` [{4-[7-(2-chloro-5-hydroxy-phenyl)-5-methyl-benzo[1,2,4]triazin-3-ylamino]-phenyl}-piperazin-1-yl-methanone], the IC50 in test [1] came to 1.2 nM.

As for `Cc1cc2nc(Nc3ccc(C(=O)N4CCN(C)CC4)cc3)nnc2cc1-c1cc(O)ccc1Cl` [{4-[7-(2-chloro-5-hydroxy-phenyl)-6-methyl-benzo[1,2,4]triazin-3-ylamino]-phenyl}-(4-methyl-piperazin-1-yl)-methanone], the IC50 in test [1] came to 3.7 nM.

For `COc1ccc(Cl)c(-c2cc3nnc(Nc4ccc(C(=O)N5CCN(C)CC5)cc4)nc3cc2C)c1` [{4-[7-(2-chloro-5-methoxy-phenyl)-6-methyl-benzo[1,2,4]triazin-3-ylamino]-phenyl}-(4-methyl-piperazin-1-yl)-methanone], in test [1], the IC50 was found to be 3.5 nM.

Consider `Cc1ccc(Cl)cc1-c1cc2nnc(Nc3ccc(C(=O)N4CCN(C)CC4)cc3)nc2cc1C` [{4-[7-(5-chloro-2-methyl-phenyl)-6-methyl-benzo[1,2,4]triazin-3-ylamino]-phenyl}-(4-methyl-piperazin-1-yl)-methanone], for which, in test [1], the IC50 came to 6 nM.
